Structures can show the parent of a compound that is named as a salt. Active and inactive are the calls of the source. Where only a bound is given, the exact number is not on record here.

Twelve compounds from ChEMBL document CHEMBL1201862, “PubChem BioAssay data set” (2004) can be followed below.

The nature of data set [1]: viability of PTEN-deleted HCT116 cells – cell-based, HCT116 PTEN knockout, dose response (AID 1047).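 Note: HCT116 colon tumor cells with PTEN knocked out; cells exposed to compound for 60 hours before readout; potency for loss of cell viability measured by luminescence.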 It is filed as functional.
The nature of data set [2]: viability of HCT116 lacking mutant beta-catenin – cell-based, human colon tumor, dose response (AID 1045).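 Note: HCT116 colon tumor cells with beta catenin knocked out; cells exposed to compound for 60 hours.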 It is filed as functional.
Data set [3] concerns HEK293. The data set is described as follows: cells. Particulars: Homo sapiens.
Data set [4] concerns HEK293. The data set is described as follows: cells. Particulars: Homo sapiens. The source holds these as a separate data set.
Another data set addresses Cytochrome P450 3A4 (Homo sapiens, UniProt P08684).
In data set [5] the target is T1, Cytochrome P450 2C9 (Homo sapiens, UniProt P11712). The settings on record: Potency.
T1 sequence (P11712 whole entry): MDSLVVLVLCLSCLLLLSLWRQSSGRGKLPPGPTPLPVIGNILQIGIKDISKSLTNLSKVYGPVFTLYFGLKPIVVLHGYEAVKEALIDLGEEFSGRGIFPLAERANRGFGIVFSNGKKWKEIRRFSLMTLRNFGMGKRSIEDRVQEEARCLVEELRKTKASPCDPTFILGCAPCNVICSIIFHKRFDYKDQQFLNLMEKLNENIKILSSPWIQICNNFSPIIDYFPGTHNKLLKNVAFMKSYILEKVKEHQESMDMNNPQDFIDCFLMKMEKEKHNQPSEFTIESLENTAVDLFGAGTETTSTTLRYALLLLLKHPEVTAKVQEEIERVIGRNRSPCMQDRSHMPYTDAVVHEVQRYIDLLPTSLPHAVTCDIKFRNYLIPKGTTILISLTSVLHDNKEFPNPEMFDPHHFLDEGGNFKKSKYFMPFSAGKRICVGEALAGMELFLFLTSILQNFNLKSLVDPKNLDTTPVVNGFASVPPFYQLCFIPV
In the next data set the target is Cytochrome P450 2D6 (Homo sapiens, UniProt P10635).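 Note: CYP2D6 member of a cytochrome P450 panel assay.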
Cytochrome P450 2D6, sequence (P10635 whole entry): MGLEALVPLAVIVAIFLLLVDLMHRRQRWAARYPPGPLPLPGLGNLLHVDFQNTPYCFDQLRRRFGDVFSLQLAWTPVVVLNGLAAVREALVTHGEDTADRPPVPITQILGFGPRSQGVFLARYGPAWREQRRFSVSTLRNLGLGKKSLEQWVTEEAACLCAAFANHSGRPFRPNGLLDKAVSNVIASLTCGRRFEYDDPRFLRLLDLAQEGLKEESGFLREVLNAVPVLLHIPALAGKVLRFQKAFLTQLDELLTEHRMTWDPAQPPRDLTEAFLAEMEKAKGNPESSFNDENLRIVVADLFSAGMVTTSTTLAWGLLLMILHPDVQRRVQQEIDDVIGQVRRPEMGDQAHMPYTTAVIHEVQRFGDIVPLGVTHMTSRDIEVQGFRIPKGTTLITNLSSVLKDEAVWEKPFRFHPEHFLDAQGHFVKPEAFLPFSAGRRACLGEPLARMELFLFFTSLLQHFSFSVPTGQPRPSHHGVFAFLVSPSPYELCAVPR
The target of data set [6] is T1, Cytochrome P450 2C9.
The target of data set [7] is Beta-2 adrenergic receptor (Homo sapiens, UniProt P07550). The data set is described as follows: ADRB2 activation measured by internalization – cell-based, FAP fluorogen, flow cytometry, cherry pick 1, dose response (AID 588763). Type of data set: functional.
Beta-2 adrenergic receptor, sequence (P07550 whole entry): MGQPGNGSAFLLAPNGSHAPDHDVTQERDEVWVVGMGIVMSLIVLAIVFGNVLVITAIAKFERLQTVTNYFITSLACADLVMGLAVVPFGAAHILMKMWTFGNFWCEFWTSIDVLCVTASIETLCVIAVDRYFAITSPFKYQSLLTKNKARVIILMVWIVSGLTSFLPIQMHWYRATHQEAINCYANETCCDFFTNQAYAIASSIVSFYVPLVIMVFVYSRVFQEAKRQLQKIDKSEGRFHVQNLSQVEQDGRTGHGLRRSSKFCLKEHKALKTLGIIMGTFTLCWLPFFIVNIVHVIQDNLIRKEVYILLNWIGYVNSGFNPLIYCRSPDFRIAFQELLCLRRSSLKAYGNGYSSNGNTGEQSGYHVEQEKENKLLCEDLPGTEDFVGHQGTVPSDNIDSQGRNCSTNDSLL
Data set [8] can be described thus: reduction of Shn3 3'UTR-driven luciferase in osteoblasts – cell-based, Clone20 osteoblasts, firefly luciferase, cherry-picked, dose response (AID 624132).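 Note: firefly luciferase luminescence from reporter carrying the Shn3 3'UTR in osteoblasts.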 Type of data set: functional.
A short description of data set [9]: non-specific 3'UTR reporter inhibition in Clone20-Shn3RL – cell-based, Renilla luciferase, cherry-picked, counter-screen for Shn3 inhibitor project, dose response (AID 624133). It is filed as functional.
A short description of data set [10]: Shn3 3'UTR reporter signal decrease – cell-based, Clone20 osteoblasts, firefly luciferase, cherry-pick, set 2, Schnurri-3 inhibitor project, dose response (AID 720490).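 Note: actives lower the luminescence signal as inhibitors.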 Type of data set: functional.
In data set [11] the target is Heat shock protein HSP 90-alpha (Homo sapiens, UniProt P07900). Type of data set: functional, organism-based.
The next data set relates to Vero. The data set is described as follows: viability of Vero cells under compound – cytotoxicity control for flavivirus capping enzyme inhibitors (AID 588742). It is filed as functional. Particulars: Chlorocebus sabaeus.
The next data set deals with Genome polyprotein (dengue virus type 2, UniProt P29990). The data set is described as follows: flavivirus cap methylation enzyme inhibition – biochemical, confirmation dose response, primary screen (AID 588689). It is filed as functional.
Genome polyprotein, sequence (P29990 2492-3391 limits assumed): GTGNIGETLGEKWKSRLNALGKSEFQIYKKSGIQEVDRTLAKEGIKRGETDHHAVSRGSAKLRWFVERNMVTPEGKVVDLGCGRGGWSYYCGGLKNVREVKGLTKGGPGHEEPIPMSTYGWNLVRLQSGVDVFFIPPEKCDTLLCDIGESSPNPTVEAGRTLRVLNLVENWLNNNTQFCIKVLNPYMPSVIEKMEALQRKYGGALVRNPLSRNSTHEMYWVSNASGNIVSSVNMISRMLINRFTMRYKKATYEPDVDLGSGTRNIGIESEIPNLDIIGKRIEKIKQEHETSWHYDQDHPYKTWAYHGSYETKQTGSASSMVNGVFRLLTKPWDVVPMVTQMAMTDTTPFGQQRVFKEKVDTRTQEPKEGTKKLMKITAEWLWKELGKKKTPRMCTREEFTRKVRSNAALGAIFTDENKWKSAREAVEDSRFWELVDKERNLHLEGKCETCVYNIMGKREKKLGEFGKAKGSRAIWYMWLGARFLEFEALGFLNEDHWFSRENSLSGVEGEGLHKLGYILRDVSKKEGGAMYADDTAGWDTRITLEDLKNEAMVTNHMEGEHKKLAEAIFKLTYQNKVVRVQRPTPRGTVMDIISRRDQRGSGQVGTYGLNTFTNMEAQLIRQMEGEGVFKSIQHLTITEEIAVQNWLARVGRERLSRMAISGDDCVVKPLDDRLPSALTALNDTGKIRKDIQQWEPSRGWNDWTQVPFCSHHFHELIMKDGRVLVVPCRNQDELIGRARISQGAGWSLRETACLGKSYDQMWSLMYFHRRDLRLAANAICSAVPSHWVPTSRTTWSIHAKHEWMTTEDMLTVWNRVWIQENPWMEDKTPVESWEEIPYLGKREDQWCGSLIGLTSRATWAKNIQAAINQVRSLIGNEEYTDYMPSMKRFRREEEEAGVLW
Data set [12] deals with Voltage-gated inwardly rectifying potassium channel KCNH2 (Homo sapiens, UniProt Q12809). Particulars: Potency.
Voltage-gated inwardly rectifying potassium channel KCNH2, sequence (Q12809 whole entry): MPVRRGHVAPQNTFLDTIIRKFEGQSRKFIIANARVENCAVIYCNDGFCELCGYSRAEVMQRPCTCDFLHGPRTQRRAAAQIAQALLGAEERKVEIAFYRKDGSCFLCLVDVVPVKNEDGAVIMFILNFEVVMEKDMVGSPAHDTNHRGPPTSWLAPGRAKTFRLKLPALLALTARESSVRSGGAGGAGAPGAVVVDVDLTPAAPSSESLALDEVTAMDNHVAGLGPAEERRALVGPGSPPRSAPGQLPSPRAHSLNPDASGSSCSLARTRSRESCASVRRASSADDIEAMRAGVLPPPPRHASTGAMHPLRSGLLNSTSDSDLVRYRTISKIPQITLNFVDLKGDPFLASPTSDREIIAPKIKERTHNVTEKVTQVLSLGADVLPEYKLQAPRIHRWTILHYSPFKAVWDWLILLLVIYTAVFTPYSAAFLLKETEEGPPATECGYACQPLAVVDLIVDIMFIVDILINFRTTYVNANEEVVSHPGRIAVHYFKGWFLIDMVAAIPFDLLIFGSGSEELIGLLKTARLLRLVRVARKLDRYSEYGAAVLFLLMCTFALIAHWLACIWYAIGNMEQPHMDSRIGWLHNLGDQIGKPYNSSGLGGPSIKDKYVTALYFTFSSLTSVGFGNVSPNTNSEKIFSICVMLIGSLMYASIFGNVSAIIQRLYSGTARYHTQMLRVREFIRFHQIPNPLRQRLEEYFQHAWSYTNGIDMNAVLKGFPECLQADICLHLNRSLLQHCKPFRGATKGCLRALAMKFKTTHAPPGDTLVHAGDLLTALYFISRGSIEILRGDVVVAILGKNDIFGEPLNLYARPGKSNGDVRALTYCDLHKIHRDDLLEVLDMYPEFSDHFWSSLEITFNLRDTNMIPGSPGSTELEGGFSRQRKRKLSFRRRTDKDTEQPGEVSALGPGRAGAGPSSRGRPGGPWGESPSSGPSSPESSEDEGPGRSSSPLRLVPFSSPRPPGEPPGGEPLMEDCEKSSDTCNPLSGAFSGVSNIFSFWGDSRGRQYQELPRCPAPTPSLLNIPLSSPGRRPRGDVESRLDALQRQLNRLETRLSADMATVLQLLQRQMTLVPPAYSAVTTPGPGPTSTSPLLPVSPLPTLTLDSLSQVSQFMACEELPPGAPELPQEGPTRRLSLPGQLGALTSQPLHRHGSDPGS
A short description of data set [13]: decrease of insulin promoter-GFP reporter – imaging, high-content screening, mouse beta cells (AID 1628). Type of data set: functional. The settings on record: MIN6.
The nature of data set [14]: MIN6 cell viability loss – mouse insulinoma, cytotoxicity control, dose response (AID 2122).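 Note: confirmatory high-throughput counterscreen run to flag cytotoxic compounds.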 Type of data set: functional.
Data set [15] is described as follows: Trypanosoma cruzi growth suppression in host cells – NIH3T3 host cells, beta-gal luminescence, confirmation (AID 2044).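 Note: intracellular parasites grown in NIH/3T3 mouse fibroblasts as host cells; luminescent beta-galactosidase reporter signal from transgenic T. cruzi replicating inside host cells; inhibitors lower the luminescence signal.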 It is filed as functional, cell-based.
The nature of data set [16]: NIH3T3 cell viability loss – ATP luminescence, mouse fibroblasts, counter-screen, dose response (AID 2010).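 Note: cells exposed to compound for about 90 hours before reading.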 Type of data set: functional, cell-based. For orientation: The purpose of a counterscreen is to sort out artefacts and off-target activity.
The target in another data set is T2, Bcl-2-related protein A1 (Mus musculus, UniProt Q07440).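 Note: confirmatory dose–response counterscreen on Bfl-1, used to check hits from a UBC13 polyubiquitin inhibitor campaign.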
T2 sequence (Q07440 whole entry): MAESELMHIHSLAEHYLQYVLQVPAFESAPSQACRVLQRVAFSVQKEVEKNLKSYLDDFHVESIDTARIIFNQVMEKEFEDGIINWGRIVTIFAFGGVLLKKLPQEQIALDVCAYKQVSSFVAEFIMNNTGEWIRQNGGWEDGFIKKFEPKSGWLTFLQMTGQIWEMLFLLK
Type of data set: functional.

Data set [17] deals with T3, Ubiquitin-conjugating enzyme E2 N (Homo sapiens, UniProt P61088).
T3 sequence (P61088 whole entry): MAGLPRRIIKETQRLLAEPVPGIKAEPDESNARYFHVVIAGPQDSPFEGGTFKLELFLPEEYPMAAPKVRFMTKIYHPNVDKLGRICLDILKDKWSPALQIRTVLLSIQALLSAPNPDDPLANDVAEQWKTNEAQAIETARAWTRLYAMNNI
It is filed as functional.

Data set [18] addresses T3, Ubiquitin-conjugating enzyme E2 N. Type of data set: functional. The source holds these as a separate data set.
The next data set has as its system INS1. The data set is described as follows: INS-1E survival protection against cytokine death – cell-based, luminescence, retest, dose response (AID 449756).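 Note: cell death triggered by IL-1 beta plus TNF-alpha plus IFN-gamma mixture; protective hits raise ATP signal compared with cytokine alone wells.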 Type of data set: functional. Particulars: Rattus norvegicus.
The nature of data set [19]: viability loss in THP-1 monocytes – THP-1 cells, cytotoxicity control for Vif-APOBEC3G degradation inhibitor project, dose response (AID 1117359). Particulars: THP-1. It is filed as functional.
The target in the next data set is T4, Cytochrome P450 1A2 (Homo sapiens, UniProt P05177).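 Note: PubChem cytochrome P450 panel assay, CYP1A2 panel member.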
T4 sequence (P05177 whole entry): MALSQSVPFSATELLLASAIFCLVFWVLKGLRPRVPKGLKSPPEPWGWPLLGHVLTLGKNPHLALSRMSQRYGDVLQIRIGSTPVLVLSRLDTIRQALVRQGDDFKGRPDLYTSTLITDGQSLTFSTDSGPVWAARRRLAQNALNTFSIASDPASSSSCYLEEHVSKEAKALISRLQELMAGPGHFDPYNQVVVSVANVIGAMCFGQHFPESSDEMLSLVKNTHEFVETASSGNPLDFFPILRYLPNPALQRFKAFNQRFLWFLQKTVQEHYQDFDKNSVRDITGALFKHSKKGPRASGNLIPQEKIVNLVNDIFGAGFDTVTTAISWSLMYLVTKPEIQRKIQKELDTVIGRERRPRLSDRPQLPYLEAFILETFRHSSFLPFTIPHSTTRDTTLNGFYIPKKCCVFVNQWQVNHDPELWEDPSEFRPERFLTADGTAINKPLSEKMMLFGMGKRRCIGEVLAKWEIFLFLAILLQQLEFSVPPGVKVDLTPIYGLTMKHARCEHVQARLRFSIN

Data set [20] addresses T1, Cytochrome P450 2C9. This is another data set of the same source.
A further data set concerns the target Cytochrome P450 2C19 (Homo sapiens, UniProt P33261). The data set is described as follows: Cytochrome panel assay with activity outcomes. Panel member name: p450-cyp2c19 Compounds with AC50 equal or less than 10 uM are considered active. It is filed as functional.

Cytochrome P450 3A4, sequence (P08684 whole entry): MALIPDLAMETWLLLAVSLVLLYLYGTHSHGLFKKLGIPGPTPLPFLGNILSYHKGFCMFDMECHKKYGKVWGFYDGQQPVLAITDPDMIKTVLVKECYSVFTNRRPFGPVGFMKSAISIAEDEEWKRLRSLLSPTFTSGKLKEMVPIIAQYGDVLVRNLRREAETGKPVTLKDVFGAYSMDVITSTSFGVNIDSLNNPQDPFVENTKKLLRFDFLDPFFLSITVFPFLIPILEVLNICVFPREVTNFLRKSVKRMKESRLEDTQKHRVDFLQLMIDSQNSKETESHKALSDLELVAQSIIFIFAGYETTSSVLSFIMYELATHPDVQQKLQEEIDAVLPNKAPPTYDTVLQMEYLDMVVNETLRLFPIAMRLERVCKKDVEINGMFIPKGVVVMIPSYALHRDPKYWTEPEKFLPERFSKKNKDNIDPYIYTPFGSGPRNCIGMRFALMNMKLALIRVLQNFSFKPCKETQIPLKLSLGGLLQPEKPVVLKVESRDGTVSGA
Cytochrome P450 2C19, sequence (P33261 whole entry): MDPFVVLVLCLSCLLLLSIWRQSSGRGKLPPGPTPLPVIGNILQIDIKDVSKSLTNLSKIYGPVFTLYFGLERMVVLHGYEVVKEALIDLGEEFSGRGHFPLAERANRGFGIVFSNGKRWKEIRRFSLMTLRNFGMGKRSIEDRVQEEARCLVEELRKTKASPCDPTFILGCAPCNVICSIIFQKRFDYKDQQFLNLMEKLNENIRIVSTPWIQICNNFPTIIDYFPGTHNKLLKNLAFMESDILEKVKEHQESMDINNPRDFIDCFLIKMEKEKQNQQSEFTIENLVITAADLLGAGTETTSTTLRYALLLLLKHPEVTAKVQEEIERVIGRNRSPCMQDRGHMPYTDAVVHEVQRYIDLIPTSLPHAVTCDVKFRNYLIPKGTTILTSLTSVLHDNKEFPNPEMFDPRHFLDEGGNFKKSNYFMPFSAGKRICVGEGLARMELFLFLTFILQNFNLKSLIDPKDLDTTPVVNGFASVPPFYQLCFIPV

On to `COc1ccc(-c2[nH]c(-c3ccc(Cl)cc3)nc2SCC(=O)Nc2nccs2)cc1`, for which the half-maximal effective concentration (EC50) (commonly the concentration at which the effect is half-maximal) is 15.9 µM (active) in data set [1], 15.3 µM (active) in [2], > 59.7 µM (inactive) in the data set on HEK293 [3] and > 59.7 µM (inactive) in the data set on HEK293 [4].

On to `OCCN1CCOCCOCCN(CCO)CCN(CCO)CC1`, for which the AC50 (commonly the concentration giving half of the maximal activity seen) at Cytochrome P450 3A4 is reported as “inconclusive”.

Turning to `COc1cc2c(c(OC)c1OC)-c1ccc(OC)c(=O)cc1[C@H](NC(C)=O)CC2`, the AC50 at Cytochrome P450 2C9 [5] was 39.8 µM (inconclusive); on Cytochrome P450 2D6, “inactive”; at Cytochrome P450 2C9 [6] it was “inactive”.

Regarding `CCOC(=O)CN=C(S)N(Cc1cccs1)C1CCCCC1`, the EC50 in the data set with HEK293 [3] and with HEK293 [4] was > 59.6 µM (inactive) each time.

Consider `Cc1ccc(-c2nc3ncccc3o2)cc1NC(=O)c1sc2ccccc2c1Cl`, for which the EC50 in [7] was 0.722 µM (active). For the same compound, the AC50 in data set [8] is 5.87 µM (active); in data set [9] it was 36.5 µM (active); in data set [10], 11.8 µM (active).

For `CC(=O)N(C(C)=O)N1C(=O)/C(=C/c2ccc(Cl)cc2)SC1=S`, the AC50 in data set [11] was 1.34 µM (active). In addition, the CC50 (as a rule, the concentration giving 50% cytotoxicity) in the data set on Vero is > 40 µM (active). In addition, the 50% inhibitory concentration (IC50) (usually the concentration needed to halve the response being measured) on Genome polyprotein was 23.5 µM (active).

As for `Nc1c2c(nc3ccccc13)CCCC2O` (centres undefined) [VELNACRINE MALEATE], in [12], the AC50 is 35.5 µM (inconclusive).

In the case of `COc1ccccc1OCCCC(=O)Nc1nccs1`, in [7], the EC50 was 5.11 µM (active).

As for `COc1cc(/C=N/N=C(N)N)ccc1OCc1ccc(Cl)cc1`, the IC50 is 1.03 µM (active) in [13]; 0.916 µM (active) in data set [14]; > 20 µM (inactive) at Bcl-2-related protein A1; 13.2 µM (active) in data set [17]; 12.9 µM (active) in data set [18]. In addition, the concentration for a half-maximal effect (EC50) in [15] was 0.397 µM (active); in data set [16], > 30 µM (not active). The half-maximal activity concentration (AC50) in the data set on INS1 was 2.95 µM (active). Further, the CC50 in data set [19] is 5.63 µM (active).

In the case of `Nc1nc2c(nc(Br)n2C2O[C@H]3CO[P@@](=O)(O)O[C@@H]3C2O)c(=O)[nH]1` (some centres undefined), in [12], the AC50 is 5.62 µM (inconclusive).

Turning to `c1ccc(C(c2ccccc2)N2CC3(CCNCC3)C2)cc1`, the concentration at half-maximal activity (AC50) was 15.8 µM (inconclusive) on Cytochrome P450 1A2, 39.8 µM (inconclusive) at Cytochrome P450 2C9 [20] and “inconclusive” on Cytochrome P450 3A4.

Regarding `O=C(O)CC1(C(=O)O)CCCCC1`, the concentration at half-maximal activity (AC50) result at Cytochrome P450 2C19 and on Cytochrome P450 2D6 was “inconclusive” throughout.
